Our source for the GI50 and TGI values is PubChem BioAssay (NCI).

Test systems include ACHN renal; CAKI-1 renal; EKVX NSCLC; HCT-15 colon; MOLT-4 leukemia; NCI-H460 lung; OVCAR-3 ovarian; SK-MEL-2 melanoma; SK-MEL-5 melanoma; HS 578T breast.
What all share (test): inhibition of tumour cell growth, NCI panel, 48 h

Each structure is given as a SMILES string. “And” between values parts separate entries of the source, which are not always exact repeats. Equal entries are not always repeated.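 Tested at 5 concentrations; 48 h exposure; 96-well plates; endpoints linearly interpolated, else capped at highest concentration. GI50 = concentration required for 50% inhibition of growth. TGI: concentration producing complete growth inhibition.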 A value given as a limit tells only on which side of the number the result lay.

For the molecule `CC(=O)[CH-]C(=O)c1ccccc1.CC(=O)[CH-]C(=O)c1ccccc1.CC(C)CCCC(C)[C@H]1CCC2[C@@H]3CCC4C[C@@H]([O-])CC[C@]4(C)C3CC[C@@]21C.CC(C)CCCC(C)[C@H]1CCC2[C@@H]3CCC4C[C@@H]([O-])CC[C@]4(C)C3CC[C@@]21C.Cl.[Ti+4]` (some centres undefined), the GI50 in the test with ACHN renal, with CAKI-1 renal, in the test on EKVX NSCLC, in the test with HCT-15 colon, in the test on MOLT-4 leukemia and in the test with NCI-H460 lung was over 25 µM each time. Also, the GI50 in the test on OVCAR-3 ovarian, in the test with SK-MEL-2 melanoma and in the test with SK-MEL-5 melanoma was over 25 µM each time. Further, the TGI with ACHN renal, in the test with CAKI-1 renal, in the test on EKVX NSCLC, in the test on HCT-15 colon, in the test with MOLT-4 leukemia and with NCI-H460 lung was over 25 µM throughout. The TGI with OVCAR-3 ovarian, in the test on SK-MEL-2 melanoma and in the test on SK-MEL-5 melanoma was over 25 µM throughout.

In the case of `COC(=O)/C=C\C1C(C(=O)OC)C2(C(=O)OC)CCC1(C(=O)OC)N2` (centres undefined), the TGI is 22.7 µM in the test on ACHN renal; 6.82 µM with CAKI-1 renal; over 60.2 µM in the test with EKVX NSCLC; 11.2 µM with HCT-15 colon; 14.7 µM with MOLT-4 leukemia; 42.5 µM in the test with NCI-H460 lung. The TGI in the test with OVCAR-3 ovarian is 28.7 µM; in the test with SK-MEL-2 melanoma, 30 µM; in the test on SK-MEL-5 melanoma, 34.1 µM.

For `COC(=O)c1c(C(=O)OC)c(C(=O)OC)c(C(=O)OC)c1C(=O)OC`, the TGI in the test with ACHN renal, in the test with CAKI-1 renal, with EKVX NSCLC, in the test with HCT-15 colon, with MOLT-4 leukemia and with NCI-H460 lung was over 100 µM each time. Besides, the TGI with OVCAR-3 ovarian, in the test on SK-MEL-2 melanoma and with SK-MEL-5 melanoma was over 100 µM in each case.

With `CCN(CC)CCNc1ccc(CO)c2sc3ccccc3c(=O)c12`, the GI50 with ACHN renal was 2.35 µM and 6.73 µM and 2.58 µM; in the test on CAKI-1 renal, 3.03 µM; in the test with EKVX NSCLC, 3.92 µM and 16.2 µM; in the test with HS 578T breast, 4.26 µM and 9.64 µM; with MOLT-4 leukemia, 3.14 µM and 3.32 µM; in the test with NCI-H460 lung, 3.44 µM. Besides, the TGI in the test with ACHN renal was 7.94 µM and 24.5 µM and 15.9 µM; with CAKI-1 renal, 26.4 µM [middle of 4 runs]; in the test with EKVX NSCLC it was 28.7 µM [middle of 4 runs]; in the test on HS 578T breast, 24.8 µM and 26.8 µM; in the test with MOLT-4 leukemia, 14.1 µM [middle of 4 runs]; in the test with NCI-H460 lung it was 11 µM and 15.1 µM and 12.2 µM. The TGI in the test on OVCAR-3 ovarian is 20 µM [middle of 4 runs].

Regarding `CCCCCCCCCCSS(=O)(=O)c1ccc(C)cc1`, the TGI in the test with ACHN renal came out at 31 µM; with CAKI-1 renal, 31.2 µM; with EKVX NSCLC, 27 µM; with HCT-15 colon, 28.2 µM; in the test with MOLT-4 leukemia, 6.73 µM; in the test with NCI-H460 lung, 23.9 µM. For the same molecule, the TGI in the test with OVCAR-3 ovarian was 33.1 µM; in the test on SK-MEL-2 melanoma, 12.4 µM; in the test on SK-MEL-5 melanoma it was 17.2 µM.

In the case of `CCOc1ccc2c(-c3ccnc(Nc4cccc(C(F)(F)F)c4)n3)cnn2n1`, the GI50 in the test with ACHN renal is 16.3 µM; with CAKI-1 renal, over 14.7 µM; with EKVX NSCLC, over 17.9 µM; in the test with HCT-15 colon, over 23.8 µM; in the test with HS 578T breast, over 20.2 µM; in the test on MOLT-4 leukemia, over 25 µM. The GI50 with NCI-H460 lung is 9.05 µM; in the test on OVCAR-3 ovarian, 8.57 µM; with SK-MEL-5 melanoma it was over 25 µM. The TGI in the test with ACHN renal, in the test with CAKI-1 renal, with EKVX NSCLC, with HCT-15 colon, in the test with HS 578T breast and in the test with MOLT-4 leukemia was over 25 µM each time. The TGI in the test on NCI-H460 lung, in the test on OVCAR-3 ovarian and in the test with SK-MEL-5 melanoma was over 25 µM each time.

As for `COc1cccc2c1C(=O)c1c(O)c3c(c(O)c1C2=O)C[C@@](O)(C(=O)COC(=O)c1cccnc1)C[C@@H]3OC1CC(N)C(O)C(C)O1` (some centres undefined), the GI50 with ACHN renal was 0.117 µM; with CAKI-1 renal it was 0.705 µM; in the test with HCT-15 colon it was 1.07 µM; with HS 578T breast, 0.175 µM; in the test with MOLT-4 leukemia, 0.0369 µM; in the test with NCI-H460 lung, 0.0269 µM. In addition, the GI50 with OVCAR-3 ovarian was 0.287 µM; with SK-MEL-2 melanoma it was 0.232 µM; with SK-MEL-5 melanoma, 0.118 µM. Besides, the TGI was 6.25 µM in the test on CAKI-1 renal; 16.8 µM with HCT-15 colon; 0.984 µM in the test with HS 578T breast; 0.684 µM with MOLT-4 leukemia; 0.215 µM in the test with NCI-H460 lung; 2.52 µM in the test on OVCAR-3 ovarian. Also, the TGI in the test with SK-MEL-2 melanoma is 0.529 µM; in the test with SK-MEL-5 melanoma it was 0.252 µM.

`c1ccc(CN2CCC3(CC2)ONC2=NCCN23)cc1`: the GI50 in the test with ACHN renal is 49.7 µM; in the test with CAKI-1 renal, 30.5 µM; in the test on EKVX NSCLC it was over 100 µM; in the test with HCT-15 colon, 46.8 µM; with MOLT-4 leukemia, 47.3 µM; in the test on NCI-H460 lung, 86.5 µM. For the same molecule, the figures for the GI50 in the test with OVCAR-3 ovarian, in the test on SK-MEL-2 melanoma and in the test on SK-MEL-5 melanoma were 19.5 µM, over 100 µM and 72 µM, respectively. The TGI with ACHN renal, in the test on CAKI-1 renal, in the test with EKVX NSCLC, with HCT-15 colon, in the test on MOLT-4 leukemia and in the test on NCI-H460 lung was over 100 µM in each case. The figures for the TGI in the test on OVCAR-3 ovarian, with SK-MEL-2 melanoma and with SK-MEL-5 melanoma were 87.3 µM, over 100 µM and over 100 µM, respectively.

On to `CCC1(c2ccncc2)CCC(=O)NC1=O` (centres undefined), for which the TGI in the test with ACHN renal, with CAKI-1 renal, in the test on EKVX NSCLC, in the test on HCT-15 colon, with MOLT-4 leukemia and in the test with NCI-H460 lung was over 100 µM throughout. Further, the TGI with OVCAR-3 ovarian, in the test on SK-MEL-2 melanoma and in the test with SK-MEL-5 melanoma was over 100 µM in each case.

For the molecule `CC[O+]=c1cccc2ssnc1-2`, the TGI in the test with ACHN renal, in the test with CAKI-1 renal, with EKVX NSCLC, in the test with HCT-15 colon, in the test with MOLT-4 leukemia and with NCI-H460 lung was over 100 µM throughout. The TGI in the test on OVCAR-3 ovarian was 99.8 µM; with SK-MEL-2 melanoma, over 100 µM; in the test with SK-MEL-5 melanoma, over 100 µM.
